This note sets out measurements from ChEMBL document CHEMBL1201862, “PubChem BioAssay data set” (2004).

Calls of active or inactive are those of the source.

Format in all cases: functional
Assay [1] concerns the target Tyrosine-protein kinase ABL1 (Homo sapiens, UniProt P00519).
For assay [2], the target named is Vascular endothelial growth factor receptor 2 (Homo sapiens, UniProt P35968).
Assay [3] has as its target Receptor-type tyrosine-protein kinase FLT3 (Homo sapiens, UniProt P36888).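 Further: FLT3 was tested as one member of a kinome-wide kinase panel.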
The target of assay [4] is Proto-oncogene tyrosine-protein kinase Src (Homo sapiens, UniProt P12931).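 Further: SRC entry within a kinome-wide kinase profiling panel.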
Proto-oncogene tyrosine-protein kinase Src, sequence (P12931 2-536 limits assumed): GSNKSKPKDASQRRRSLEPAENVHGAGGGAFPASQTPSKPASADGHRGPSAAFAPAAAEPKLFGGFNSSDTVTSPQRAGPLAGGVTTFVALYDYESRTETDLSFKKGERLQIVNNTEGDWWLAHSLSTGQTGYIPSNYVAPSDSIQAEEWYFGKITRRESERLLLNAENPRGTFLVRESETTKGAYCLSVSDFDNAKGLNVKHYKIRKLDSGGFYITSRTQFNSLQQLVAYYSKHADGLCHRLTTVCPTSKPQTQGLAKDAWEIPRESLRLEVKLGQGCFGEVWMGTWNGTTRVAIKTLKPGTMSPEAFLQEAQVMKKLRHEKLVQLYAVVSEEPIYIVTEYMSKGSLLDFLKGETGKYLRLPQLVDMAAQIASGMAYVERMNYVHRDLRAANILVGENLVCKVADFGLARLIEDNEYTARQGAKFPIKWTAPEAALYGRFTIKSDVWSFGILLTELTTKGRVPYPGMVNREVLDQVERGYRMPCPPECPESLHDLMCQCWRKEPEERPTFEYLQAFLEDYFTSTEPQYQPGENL
Assay [5] deals with Tyrosine-protein kinase Blk (Homo sapiens, UniProt P51451).
Tyrosine-protein kinase Blk, sequence (P51451 whole entry): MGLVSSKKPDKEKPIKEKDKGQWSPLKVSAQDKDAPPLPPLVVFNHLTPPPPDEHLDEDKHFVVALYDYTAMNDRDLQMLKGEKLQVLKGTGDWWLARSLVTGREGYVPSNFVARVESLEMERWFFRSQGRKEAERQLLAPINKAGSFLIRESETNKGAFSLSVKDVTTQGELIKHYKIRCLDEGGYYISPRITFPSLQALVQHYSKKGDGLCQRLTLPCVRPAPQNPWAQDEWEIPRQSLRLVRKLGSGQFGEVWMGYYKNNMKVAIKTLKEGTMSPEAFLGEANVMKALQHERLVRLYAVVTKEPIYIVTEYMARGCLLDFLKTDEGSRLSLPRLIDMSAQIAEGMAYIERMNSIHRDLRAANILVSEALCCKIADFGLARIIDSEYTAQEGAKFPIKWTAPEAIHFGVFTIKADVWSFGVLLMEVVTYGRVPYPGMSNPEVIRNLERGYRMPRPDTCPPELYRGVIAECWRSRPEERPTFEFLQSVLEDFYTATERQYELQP
In assay [6] the target is Mast/stem cell growth factor receptor Kit (Homo sapiens, UniProt P10721).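 Further: KIT entry within a kinase panel assay.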
Mast/stem cell growth factor receptor Kit, sequence (P10721 whole entry): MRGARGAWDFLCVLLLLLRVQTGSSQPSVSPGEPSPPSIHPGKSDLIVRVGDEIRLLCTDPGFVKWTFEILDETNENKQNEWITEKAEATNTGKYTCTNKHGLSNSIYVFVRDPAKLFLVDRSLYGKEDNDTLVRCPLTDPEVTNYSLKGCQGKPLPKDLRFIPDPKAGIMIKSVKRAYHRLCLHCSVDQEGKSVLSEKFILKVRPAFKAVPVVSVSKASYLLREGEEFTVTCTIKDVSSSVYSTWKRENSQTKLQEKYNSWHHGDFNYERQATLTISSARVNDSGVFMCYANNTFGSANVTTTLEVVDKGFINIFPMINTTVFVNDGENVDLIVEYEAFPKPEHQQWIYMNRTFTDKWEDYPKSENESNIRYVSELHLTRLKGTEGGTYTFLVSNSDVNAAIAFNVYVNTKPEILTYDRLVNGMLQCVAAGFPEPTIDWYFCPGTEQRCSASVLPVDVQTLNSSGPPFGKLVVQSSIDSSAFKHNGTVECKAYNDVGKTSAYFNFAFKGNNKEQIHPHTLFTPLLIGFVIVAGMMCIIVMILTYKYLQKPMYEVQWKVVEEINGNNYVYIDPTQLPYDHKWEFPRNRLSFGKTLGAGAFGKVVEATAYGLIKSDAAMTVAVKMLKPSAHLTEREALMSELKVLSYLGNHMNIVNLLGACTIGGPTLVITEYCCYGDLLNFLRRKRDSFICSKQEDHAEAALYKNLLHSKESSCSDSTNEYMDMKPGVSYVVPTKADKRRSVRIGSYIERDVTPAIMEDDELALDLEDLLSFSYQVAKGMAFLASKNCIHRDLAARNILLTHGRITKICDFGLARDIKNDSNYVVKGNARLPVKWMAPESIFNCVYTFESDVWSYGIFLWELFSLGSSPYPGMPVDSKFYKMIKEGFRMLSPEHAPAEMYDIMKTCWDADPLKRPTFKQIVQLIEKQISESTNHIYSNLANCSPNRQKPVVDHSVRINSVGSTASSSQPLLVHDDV
Assay [7] has as its target Tyrosine-protein kinase Lck (Homo sapiens, UniProt P06239).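 Further: lck was assayed as one member of a kinase panel.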
In assay [8] the target is Tyrosine-protein kinase Fyn (Homo sapiens, UniProt P06241).
In assay [9] the target is Tyrosine-protein kinase Lyn (Homo sapiens, UniProt P07948).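 Further: lyn as one member of a kinase panel.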
Assay [10] addresses Macrophage colony-stimulating factor 1 receptor (Homo sapiens, UniProt P07333).
Assay [11] has as its target Vascular endothelial growth factor receptor 3 (Homo sapiens, UniProt P35916).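 Further: value from a kinome-wide profiling panel, with FLT4 as the panel member.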
For assay [12], the target named is Vascular endothelial growth factor receptor 1 (Homo sapiens, UniProt P17948).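 Further: measured within a kinome-wide profiling panel, FLT1 as the panel member.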
Vascular endothelial growth factor receptor 1, sequence (P17948 whole entry): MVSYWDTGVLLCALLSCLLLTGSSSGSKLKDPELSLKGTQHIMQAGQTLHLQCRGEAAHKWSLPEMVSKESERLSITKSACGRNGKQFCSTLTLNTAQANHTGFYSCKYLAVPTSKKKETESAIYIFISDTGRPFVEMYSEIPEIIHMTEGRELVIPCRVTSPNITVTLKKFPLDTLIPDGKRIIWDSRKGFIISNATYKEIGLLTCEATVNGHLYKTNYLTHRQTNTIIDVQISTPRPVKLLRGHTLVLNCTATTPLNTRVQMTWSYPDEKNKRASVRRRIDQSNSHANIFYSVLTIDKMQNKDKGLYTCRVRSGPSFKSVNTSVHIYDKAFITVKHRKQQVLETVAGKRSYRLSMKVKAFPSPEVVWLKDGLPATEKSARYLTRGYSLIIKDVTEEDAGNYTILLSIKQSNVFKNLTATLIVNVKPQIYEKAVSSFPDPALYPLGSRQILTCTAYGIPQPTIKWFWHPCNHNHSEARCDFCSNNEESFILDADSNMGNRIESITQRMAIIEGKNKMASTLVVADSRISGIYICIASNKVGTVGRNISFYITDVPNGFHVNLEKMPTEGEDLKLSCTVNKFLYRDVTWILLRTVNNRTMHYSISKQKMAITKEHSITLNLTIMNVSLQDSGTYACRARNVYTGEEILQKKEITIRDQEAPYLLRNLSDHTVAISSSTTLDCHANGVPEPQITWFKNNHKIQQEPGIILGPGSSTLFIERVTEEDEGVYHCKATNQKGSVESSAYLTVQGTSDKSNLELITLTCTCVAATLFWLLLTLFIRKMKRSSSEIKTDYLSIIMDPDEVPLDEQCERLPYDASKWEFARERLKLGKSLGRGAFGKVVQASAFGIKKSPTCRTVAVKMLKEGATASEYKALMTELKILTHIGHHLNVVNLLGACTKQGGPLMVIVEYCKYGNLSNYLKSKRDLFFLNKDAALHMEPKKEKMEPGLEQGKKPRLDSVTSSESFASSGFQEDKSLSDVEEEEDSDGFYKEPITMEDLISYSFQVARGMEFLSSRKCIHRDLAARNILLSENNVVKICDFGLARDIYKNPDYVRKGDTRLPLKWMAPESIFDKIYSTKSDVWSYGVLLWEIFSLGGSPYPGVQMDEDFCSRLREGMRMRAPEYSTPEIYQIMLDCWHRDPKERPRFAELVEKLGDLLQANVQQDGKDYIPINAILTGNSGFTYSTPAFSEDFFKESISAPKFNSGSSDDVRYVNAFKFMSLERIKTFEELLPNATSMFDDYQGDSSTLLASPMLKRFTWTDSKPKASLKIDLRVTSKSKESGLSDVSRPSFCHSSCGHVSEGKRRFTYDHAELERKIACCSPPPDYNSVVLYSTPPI
Assay [13] deals with T1, Neuropeptides B/W receptor type 1 (Homo sapiens, UniProt P48145).
T1 sequence (P48145 whole entry): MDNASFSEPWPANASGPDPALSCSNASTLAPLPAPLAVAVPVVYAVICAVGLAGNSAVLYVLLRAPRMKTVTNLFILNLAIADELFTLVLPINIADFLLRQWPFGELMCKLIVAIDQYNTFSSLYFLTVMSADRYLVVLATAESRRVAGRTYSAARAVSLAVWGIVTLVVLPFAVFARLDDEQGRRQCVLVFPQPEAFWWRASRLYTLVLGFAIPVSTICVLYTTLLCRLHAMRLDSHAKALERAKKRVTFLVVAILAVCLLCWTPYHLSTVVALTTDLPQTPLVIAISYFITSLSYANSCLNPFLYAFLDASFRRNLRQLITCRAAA
Briefly: human NPBW1 receptor blockade, IC50 – cell-based, fluorescence, dose response, set 5, late-stage follow-up (AID 588566).

Assay [14] addresses Melanin-concentrating hormone receptor 1 (Homo sapiens, UniProt Q99705). Briefly: Late-stage fluorescence-based counterscreen for antagonists of the G-protein coupled receptor 7 (GPR7): cell-based dose response assay to identify antagonists of the melanin-concentrating hormone receptor 1 (MCHR1) Set 5. In general terms: Counterscreens check selectivity or assay interference.

Tyrosine-protein kinase ABL1, sequence (P00519 whole entry): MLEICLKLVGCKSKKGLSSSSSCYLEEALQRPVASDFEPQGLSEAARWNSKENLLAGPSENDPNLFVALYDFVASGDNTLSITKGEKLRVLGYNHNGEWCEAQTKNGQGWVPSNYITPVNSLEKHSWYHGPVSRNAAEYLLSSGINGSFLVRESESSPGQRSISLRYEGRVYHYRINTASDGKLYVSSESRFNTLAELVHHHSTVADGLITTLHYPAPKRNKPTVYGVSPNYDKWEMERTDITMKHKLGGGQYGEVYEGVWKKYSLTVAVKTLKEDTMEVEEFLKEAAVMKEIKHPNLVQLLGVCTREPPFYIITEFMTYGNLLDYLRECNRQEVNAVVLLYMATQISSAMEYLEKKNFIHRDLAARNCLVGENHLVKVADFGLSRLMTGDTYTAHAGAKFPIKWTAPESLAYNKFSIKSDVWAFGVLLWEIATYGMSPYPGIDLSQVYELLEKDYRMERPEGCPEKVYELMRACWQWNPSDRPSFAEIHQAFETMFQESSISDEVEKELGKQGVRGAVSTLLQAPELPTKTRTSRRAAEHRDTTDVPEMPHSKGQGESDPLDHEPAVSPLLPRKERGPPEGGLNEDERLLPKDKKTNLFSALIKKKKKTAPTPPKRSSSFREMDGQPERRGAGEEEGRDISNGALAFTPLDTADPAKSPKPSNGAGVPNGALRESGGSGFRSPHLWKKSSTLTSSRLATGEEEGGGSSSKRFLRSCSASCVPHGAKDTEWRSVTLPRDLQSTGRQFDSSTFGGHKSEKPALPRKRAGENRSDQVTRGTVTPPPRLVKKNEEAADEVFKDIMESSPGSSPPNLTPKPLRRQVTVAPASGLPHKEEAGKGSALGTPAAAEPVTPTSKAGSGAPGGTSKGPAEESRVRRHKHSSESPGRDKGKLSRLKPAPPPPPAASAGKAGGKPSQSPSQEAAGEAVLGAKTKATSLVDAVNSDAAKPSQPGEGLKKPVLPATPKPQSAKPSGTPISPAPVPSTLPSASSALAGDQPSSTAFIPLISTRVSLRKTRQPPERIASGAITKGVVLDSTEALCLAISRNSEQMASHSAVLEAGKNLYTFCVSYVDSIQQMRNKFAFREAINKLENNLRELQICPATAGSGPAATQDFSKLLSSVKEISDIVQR
Melanin-concentrating hormone receptor 1, sequence (Q99705 whole entry): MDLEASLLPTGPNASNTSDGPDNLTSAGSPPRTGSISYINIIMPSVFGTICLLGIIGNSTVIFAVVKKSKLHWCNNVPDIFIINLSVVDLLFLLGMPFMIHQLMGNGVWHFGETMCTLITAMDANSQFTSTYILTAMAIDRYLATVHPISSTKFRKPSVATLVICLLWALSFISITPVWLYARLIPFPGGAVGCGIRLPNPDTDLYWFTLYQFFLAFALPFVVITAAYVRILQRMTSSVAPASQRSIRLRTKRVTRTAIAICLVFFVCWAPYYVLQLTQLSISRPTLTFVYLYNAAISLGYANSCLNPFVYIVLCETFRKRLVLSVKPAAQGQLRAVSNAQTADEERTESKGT

By Ki is commonly meant a measure of affinity in units of concentration, obtained from inhibition or displacement. On to `Cc1ccc(F)c(NC(=O)Nc2ccc(-c3c(F)ccc4[nH]nc(N)c34)cc2)c1`, for which the inhibitory constant (Ki) in [1] was 501 nM (active); in assay [2], 7.94 nM (active); in assay [3] it was 0.794 nM (active); in [4], 501 nM (active); in assay [5] it was 1580 nM (active); in assay [6], 1 nM (active). For the same compound, the Ki is 631 nM (active) in assay [7]; 501 nM (active) in assay [8]; 398 nM (active) in assay [9]; 1.26 nM (active) in assay [10]; 1 nM (active) in [11]; 0.251 nM (active) in assay [12].
The term IC50 denotes the concentration at which inhibition is half-maximal. With `N#CC(c1ccccc1)c1c(Br)cnn(Cc2cccc3ccccc23)c1=O` (centres undefined), the results for the concentration for half-maximal inhibition (IC50) in [13] and in assay [14] were 116 nM (active) and 16400 nM (inactive), respectively.
